Experimental data from US20250154109A1, “SODIUM CHANNEL BLOCKING COMPOUNDS, DERIVATIVES THEREOF, AND METHODS OF THEIR USE” (LATIGO BIOTHERAPEUTICS, INC, priority 2022, published 2025).
Counter-ions that a name gives are not always drawn. Like-named read-outs stand apart in the source and are kept apart here.

Biological target: human Nav1.8 (Homo sapiens, UniProt Q9Y5Y9)
Experiment: SyncroPatch384PE assay (automated patch clamp)
Assay type: cell-based
Settings: human Nav1.8/b3 CHO cells
[1] = inactivated state block (P2 measurement), read-out: P2 IC50
[2] = resting state block (P1 measurement), read-out: P1 IC50

human Nav1.8, sequence (Q9Y5Y9 whole entry): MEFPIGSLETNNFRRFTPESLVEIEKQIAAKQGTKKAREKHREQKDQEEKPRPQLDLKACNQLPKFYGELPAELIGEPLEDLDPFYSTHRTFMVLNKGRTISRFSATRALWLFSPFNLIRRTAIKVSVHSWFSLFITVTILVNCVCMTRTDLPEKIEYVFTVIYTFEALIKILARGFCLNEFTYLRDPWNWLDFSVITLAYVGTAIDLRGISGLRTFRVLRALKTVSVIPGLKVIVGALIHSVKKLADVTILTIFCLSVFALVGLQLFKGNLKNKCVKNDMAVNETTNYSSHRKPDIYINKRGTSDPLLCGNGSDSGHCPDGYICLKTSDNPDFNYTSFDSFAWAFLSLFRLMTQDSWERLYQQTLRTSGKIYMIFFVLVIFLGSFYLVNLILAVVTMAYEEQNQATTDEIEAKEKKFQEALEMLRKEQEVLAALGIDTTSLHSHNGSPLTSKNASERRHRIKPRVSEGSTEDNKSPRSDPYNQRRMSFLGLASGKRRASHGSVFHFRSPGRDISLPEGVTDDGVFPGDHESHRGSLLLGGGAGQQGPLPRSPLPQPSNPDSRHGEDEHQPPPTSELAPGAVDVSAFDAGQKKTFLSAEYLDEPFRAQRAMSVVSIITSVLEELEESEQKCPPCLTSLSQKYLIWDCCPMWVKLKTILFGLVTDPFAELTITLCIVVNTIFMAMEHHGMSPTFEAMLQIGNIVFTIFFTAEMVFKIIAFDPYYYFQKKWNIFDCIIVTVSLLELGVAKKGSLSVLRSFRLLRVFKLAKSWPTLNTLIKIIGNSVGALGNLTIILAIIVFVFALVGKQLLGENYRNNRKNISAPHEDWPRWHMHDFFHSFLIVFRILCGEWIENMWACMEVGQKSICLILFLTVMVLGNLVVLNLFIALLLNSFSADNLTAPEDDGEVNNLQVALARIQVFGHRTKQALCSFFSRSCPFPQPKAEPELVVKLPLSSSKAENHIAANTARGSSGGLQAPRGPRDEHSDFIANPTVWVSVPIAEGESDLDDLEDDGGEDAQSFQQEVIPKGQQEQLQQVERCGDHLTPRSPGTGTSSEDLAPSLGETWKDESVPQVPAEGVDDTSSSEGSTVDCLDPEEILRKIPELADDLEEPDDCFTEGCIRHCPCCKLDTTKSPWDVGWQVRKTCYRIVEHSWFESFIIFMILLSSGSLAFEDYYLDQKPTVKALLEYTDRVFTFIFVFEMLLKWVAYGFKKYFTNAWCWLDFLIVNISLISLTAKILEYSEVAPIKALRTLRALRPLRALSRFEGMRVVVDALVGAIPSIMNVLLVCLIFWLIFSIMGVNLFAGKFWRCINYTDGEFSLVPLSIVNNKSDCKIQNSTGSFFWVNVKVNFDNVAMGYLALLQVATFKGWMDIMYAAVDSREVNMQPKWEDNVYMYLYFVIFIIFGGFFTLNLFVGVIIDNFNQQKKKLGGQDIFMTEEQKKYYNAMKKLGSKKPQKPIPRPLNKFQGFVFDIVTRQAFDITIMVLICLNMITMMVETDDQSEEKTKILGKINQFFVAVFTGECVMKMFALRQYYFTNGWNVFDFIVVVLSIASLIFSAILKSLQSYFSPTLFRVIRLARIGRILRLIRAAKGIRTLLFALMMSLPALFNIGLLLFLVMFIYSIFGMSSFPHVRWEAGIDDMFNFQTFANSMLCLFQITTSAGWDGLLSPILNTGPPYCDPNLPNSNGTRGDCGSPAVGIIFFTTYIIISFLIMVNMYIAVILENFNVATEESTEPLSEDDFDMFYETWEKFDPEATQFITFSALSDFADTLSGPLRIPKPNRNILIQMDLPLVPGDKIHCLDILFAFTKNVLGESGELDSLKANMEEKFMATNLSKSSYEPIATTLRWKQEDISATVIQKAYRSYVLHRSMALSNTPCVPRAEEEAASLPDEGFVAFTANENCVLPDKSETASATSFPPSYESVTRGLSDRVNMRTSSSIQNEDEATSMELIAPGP

SMILES	IC50 [1] [nM]	IC50 [2] [nM]
CNCC(=O)N=[S@](C)(=O)c1cccc(NC(=O)c2c(N3CCCC(F)(F)CC3)ncc(-c3ccc4c(c3)OCCO4)c2C)c1 [Example 48, (R)-2-(4,4-difluoroazepan-1-yl)-5-(2,3-dihydrobenzo[b][1,4]dioxin-6-yl)-4-methyl-N-(3-(S-methyl-N-(methylglycyl)sulfonimidoyl)phenyl)nicotinamide]	≤ 5	≤ 5
Cc1c(-c2cnn(C)c2)cnc(N2CCCC(F)(F)CC2)c1C(=O)Nc1cccc([S@@](C)(=O)=NC(=O)C2CNC2)c1 [Example 51, (R)-N-(3-(N-(azetidine-3-carbonyl)-S-methylsulfonimidoyl)phenyl)-2-(4,4-difluoroazepan-1-yl)-4-methyl-5-(1-methyl-1H-pyrazol-4-yl)nicotinamide formate]	5 to 50	5 to 50
CNS(=N)(=O)c1cc(NC(=O)c2cc(C(F)(F)F)c(C)nc2N2CCCC(F)(F)CC2)ccn1 (stereo not shown) [Example 107, 2-(4,4-difluoroazepan-1-yl)-6-methyl-N-(2-(N-methylsulfamidimidoyl)pyridine-4-yl)-5-(trifluoromethyl)nicotinamide]	≤ 5	≤ 5
Cc1nc(N2CC(F)(F)C2)nc(N2CCCC(F)(F)CC2)c1C(=O)Nc1cccc([S@](C)(=N)=O)c1 [Example 158, (R)-4-(4,4-difluoroazepan-1-yl)-2-(3,3-difluoroazetidin-1-yl)-6-methyl-N-(3-(S-methylsulfonimidoyl)phenyl)pyrimidine-5-carboxamide]	50 to 100	50 to 100
Cc1c(C#N)cnc(N2CCCC(F)(F)CC2)c1C(=O)Nc1cccc([S@](C)(=N)=O)c1 [Example 125, (R)-5-cyano-2-(4,4-difluoroazepan-1-yl)-4-methyl-N-(3-(S-methylsulfonimidoyl)phenyl)nicotinamide]	5 to 50	5 to 50
Cc1c(C(=O)Nc2cccc([S@@](C)(=O)=NC(=O)[C@@H](C)O)c2)c(N2CCCC(F)(F)CC2)nc(C(F)(F)F)c1-c1cnn(C)c1 [Example 236, 2-(4,4-difluoroazepan-1-yl)-N-(3-((R)-N-((R)-2-hydroxypropanoyl)-S-methylsulfonimidoyl)phenyl)-4-methyl-5-(1-methyl-1H-pyrazol-4-yl)-6-(trifluoromethyl)nicotinamide]	≤ 5	≤ 5
Cc1c(-c2cnn(C(F)F)c2)cnc(N2CCCC(F)(F)CC2)c1C(=O)Nc1cccc([S@](C)(=N)=O)c1 [Example 159, (R)-2-(4,4-difluoroazepan-1-yl)-5-(1-(difluoromethyl)-1H-pyrazol-4-yl)-4-methyl-N-(3-(S-methylsulfonimidoyl)phenyl)nicotinamide]	5 to 50	5 to 50
Cc1c(C(F)(F)F)cnc(N2CCCC(F)(F)CC2)c1C(=O)Nc1ccnc([S@](C)(=N)=O)c1 (single isomer, unassigned) [Example 189]	≤ 5	≤ 5
CS(=O)(=O)c1cccc(NC(=O)c2nnc(C(F)(F)F)cc2N2CCCC(F)(F)CC2)c1 [Example 39, 4-(4,4-Difluoroazepan-1-yl)-N-(3-(methylsulfonyl)phenyl)-6-(trifluoromethyl)pyridazine-3-carboxamide]	> 200	> 200
Cc1c(Cl)c(C#N)nc(N2CCCC(F)(F)CC2)c1C(=O)Nc1cccc([S@](C)(=N)=O)c1 [Example 171, (R)-5-chloro-6-cyano-2-(4,4-difluoroazepan-1-yl)-4-methyl-N-(3-(S-methylsulfonimidoyl)phenyl)nicotinamide]	≤ 5	≤ 5
Cc1nn(C)cc1-c1cnc(N2CCCC(F)(F)CC2)c(C(=O)Nc2cccc([S@](C)(=N)=O)c2)c1C [Example 146, (R)-2-(4,4-difluoroazepan-1-yl)-5-(1,3-dimethyl-1H-pyrazol-4-yl)-4-methyl-N-(3-(S-methylsulfonimidoyl)phenyl)nicotinamide]	> 200	> 200
CS(=N)(=O)c1cccc(NC(=O)c2nnc(C(F)(F)F)cc2N2CCCC(F)(F)CC2)c1 (stereo not shown) [Example 21, 4-(4,4-difluoroazepan-1-yl)-N-(3-(S-methylsulfonimidoyl)phenyl)-6-(trifluoromethyl)pyridazine-3-carboxamide]	> 200	> 200
COc1ccc(-c2nnc(N3CCCC(F)(F)CC3)c(C(=O)Nc3cccc([S@@](C)(=N)=O)c3)c2C)cc1 (single isomer, unassigned) [Example 137]	> 200	> 200
Cc1c(-c2cnn(C)c2)cnc(N2CCCC(F)(F)CC2)c1C(=O)NC12CC(C(N)=O)(C1)C2 [Example 132, N-(3-carbamoylbicyclo[1.1.1]pentan-1-yl)-2-(4,4-difluoroazepan-1-yl)-4-methyl-5-(1-methyl-1H-pyrazol-4-yl)nicotinamide]	> 200	> 200
C=CCCc1ccc(C(=O)Nc2cccc([S@](C)(=N)=O)c2)c(N2CCCC(F)(F)CC2)n1 [Example 35, (R)-6-(But-3-en-1-yl)-2-(4,4-difluoroazepan-1-yl)-N-(3-(S-methylsulfonimidoyl)phenyl)nicotinamide]	≤ 5	≤ 5
CNCC(=O)N=[S@](C)(=O)c1cccc(NC(=O)c2c(N3CCCC(F)(F)CC3)ncc(-c3ccc(Cl)cc3)c2C)c1 [Example 68, (R)-5-(4-chlorophenyl)-2-(4,4-difluoroazepan-1-yl)-4-methyl-N-(3-(S-methyl-N-(methylglycyl)sulfonimidoyl)phenyl)nicotinamide]	≤ 5	≤ 5

Further lines, results first:

IC50 [1] [nM]	IC50 [2] [nM]	SMILES
100 to 200	> 200	C[S@@](=N)(=O)c1cccc(NC(=O)c2cc(C(F)(F)F)nnc2N2CCCC(F)(F)CC2)c1 [Example 18, (R)-3-(4,4-difluoroazepan-1-yl)-N-(3-(S-methylsulfonimidoyl)phenyl)-6-(trifluoromethyl)pyridazine-4-carboxamide]
≤ 5	≤ 5	Cc1c(-c2ccc(F)cc2)cnc(N2CCCC(F)(F)CC2)c1C(=O)Nc1cccc(S(C)(=N)=O)c1 (stereo not shown) [Example 88, 2-(4,4-difluoroazepan-1-yl)-5-(4-fluorophenyl)-4-methyl-N-(3-(S-methylsulfonimidoyl)phenyl)nicotinamide]
5 to 50	5 to 50	Cc1c(C(F)(F)F)nnc(N2CCCC(F)(F)CC2)c1C(=O)Nc1ccnc(S(C)(=N)=O)c1 (stereo not shown) [Example 102, 3-(4,4-difluoroazepan-1-yl)-5-methyl-N-(2-(S-methylsulfonimidoyl)pyridin-4-yl)-6-(trifluoromethyl)pyridazine-4-carboxamide]
≤ 5	≤ 5	Cc1c(C(F)(F)F)cnc(N2CCCC(F)(F)CC2)c1C(=O)Nc1cccc([S@@](C)(=O)=NC(=O)C2(N)CCC2)c1 [Example 180, (R)-N-(3-(N-(1-aminocyclobutane-1-carbonyl)-S-methylsulfonimidoyl)phenyl)-2-(4,4-difluoroazepan-1-yl)-4-methyl-5-(trifluoromethyl)nicotinamide]
50 to 100	50 to 100	Cc1c(C(F)(F)F)nnc(N2CCCCCC2)c1C(=O)Nc1cccc([S@](C)(=N)=O)c1 [Example 10, (R)-3-(azepan-1-yl)-5-methyl-N-(3-(S-methylsulfonimidoyl)phenyl)-6-(trifluoromethyl)pyridazine-4-carboxamide]
50 to 100	50 to 100	Cc1c(-c2ccncc2)cnc(N2CCCC(F)(F)CC2)c1C(=O)Nc1cccc(S(C)(=N)=O)c1 (stereo not shown) [Example 85, 6-(4,4-difluoroazepan-1-yl)-4-methyl-N-(3-(S-methylsulfonimidoyl)phenyl)-[3,4bipyridine]-5-carboxamide]
≤ 5	≤ 5	C[S@@](=N)(=O)c1cccc(NC(=O)c2c(N3CCCC(F)(F)CC3)ncc(Cl)c2F)c1 [Example 226, (R)-5-chloro-2-(4,4-difluoroazepan-1-yl)-4-fluoro-N-(3-(S-methylsulfonimidoyl)phenyl)nicotinamide]
> 200	> 200	Cc1c(C(N)=O)cnc(N2CCCC(F)(F)CC2)c1C(=O)Nc1cccc([S@](C)(=N)=O)c1 [Example 129, (R)-2-(4,4-difluoroazepan-1-yl)-4-methyl-N3-(3-(S-methylsulfonimidoyl)phenyl)pyridine-3,5-dicarboxamide]
≤ 5	≤ 5	CNCC(=O)N=[S@](C)(=O)c1cccc(NC(=O)c2c(N3CCCC(F)(F)CC3)ncc(C(F)(F)F)c2C)c1 [Example 194, (R)-2-(4,4-difluoroazepan-1-yl)-4-methyl-N-(3-(S-methyl-N-(methylglycyl)sulfonimidoyl)phenyl)-5-(trifluoromethyl)nicotinamide]
≤ 5	≤ 5	Cc1c(-c2cnn(C(F)(F)F)c2)cnc(N2CCCC(F)(F)CC2)c1C(=O)Nc1cccc([S@](C)(=N)=O)c1 [Example 176, (R)-2-(4,4-difluoroazepan-1-yl)-4-methyl-N-(3-(S-methylsulfonimidoyl)phenyl)-5-(1-(trifluoromethyl)-1H-pyrazol-4-yl)nicotinamide]
≤ 5	≤ 5	Cc1nc(N2CCC3(CC2)CC3)c(C(=O)Nc2cccc([S@@](C)(=N)=O)c2)cc1Cl [Example 27, (S)-5-Chloro-6-methyl-N-(3-(S-methylsulfonimidoyl)phenyl)-2-(6-azaspiro[2.5]octan-6-yl)nicotinamide]
≤ 5	≤ 5	Cc1c(-c2cccc(F)c2)cnc(N2CCCC(F)(F)CC2)c1C(=O)Nc1cccc([S@](C)(=N)=O)c1 [Example 110, (R)-2-(4,4-difluoroazepan-1-yl)-5-(3-fluorophenyl)-4-methyl-N-(3-(S-methylsulfonimidoyl)phenyl)nicotinamide]
5 to 50	5 to 50	Cc1c(-c2cnn(C)c2)cnc(N2CCCC(F)(F)CC2)c1C(=O)Nc1cccc([S@@](C)(=O)=NC(=O)C(N)C(F)(F)F)c1 (stereo partly drawn) [Example 174, N-(3-((R)-N-(2-amino-3,3,3-trifluoropropanoyl)-S-methylsulfonimidoyl)phenyl)-2-(4,4-difluoroazepan-1-yl)-4-methyl-5-(1-methyl-1H-pyrazol-4-yl)nicotinamide]
